Source: patent US8853424B2 (Japan Science and Technology Agency, priority 2008, dated 2014)

Columns and labels:
[1] = tested on: Truncated N-terminal huntington 150 Q-EGFP-Neuron 2a cells; test: Measurement of x-Fold (polyglutamine aggregation inhibitory activity); assay type: cell-based
Protocol: In the present invention, the polyglutamine aggregation inhibitory activity (x-Fold) can be measured, for example, by the method described in the Example.
The number of the aggregated cells, and the total number of cells were counted by Array Scan V T1 (manufactured by Cellomics, Pittuburg, USA), and the ratio of the aggregated cells to the total number of cells was determined (x-Fold). […]

transglutaminase (TGase) = test: Measurement of TG (TGase inhibitory activity, monodansyl cadaverine / N,N-dimethylcasein fluorescence, FDSS 3000); assay type: biochemical
How it was run: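 Compound (1 μL of 10 mM stock) added to 0.1 mL reaction: 100 mM HEPES-NaOH pH 7.5, 1 mM CaCl2, 20 μM monodansyl cadaverine, 0.05 mg/mL N,N-dimethylcasein, 5 μg/mL TGase. Rate of fluorescence change at 340 nm measured; DMSO control set to 100; TG50 is the concentration halving activity.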

[2] = ratio of aggregated cells to total number of cells, compound 20 μM, 20 hr, almost 1 without compound, smaller = stronger inhibition
[3] = TGase activity with compound (10 mM, 1 μL in 0.1 ml enzyme reaction solution), DMSO control taken as 100
[4] = polyglutamine aggregation inhibitory activity, Table 1
[5] = TGase inhibitory activity value, Table 1

Row | SMILES | x-Fold ([1]; polyglutamine aggregation inhibitory activity, Table 1, listed as 655) | x-Fold [1, 2] | TGase activity remaining (% of DMSO control = 100) (transglutaminase (TGase); [3]) | TGase activity remaining (% of DMSO control = 100) (transglutaminase (TGase); TGase inhibitory activity value, Table 1, listed as 655) | x-Fold [1, 4] | TGase activity remaining (% of DMSO control = 100) (transglutaminase (TGase); [5]) | x-Fold ([1]; polyglutamine aggregation inhibitory activity, Table 1, listed as 693) | TGase activity remaining (% of DMSO control = 100) (transglutaminase (TGase); TGase inhibitory activity value, Table 1, listed as 693)
1 | OB(c1ccccc1)c1cccc(COCc2ccccc2B(O)c2ccccc2)c1 [Example 330, (2-(phenylhydroxyboryl)benzyl)(3-(phenylhydroxyboryl)benzyl)ether] | 0.90 | 0.90 | 89 | 89 |  |  |  | 
2 | NCCOB(c1ccccc1)c1ccc(COCc2ccccc2B(OCCN)c2ccccc2)cc1 [Example 335, (2-(phenylaminoethoxyboryl)benzyl) (4-(phenylaminoethoxyboryl)benzyl)ether] |  | 1.02 | 91 |  | 1.02 | 91 |  | 
3 | OB(c1ccc(F)cc1)c1cccc(COCc2cccc(B(O)c3ccc(F)cc3)c2)c1 [Example 336, bis(3-(4-fluorophenylhydroxyboryl)benzyl)ether] |  | 1.02 | 101 |  | 1.02 | 101 |  | 
4 | Fc1ccc(NCCOBc2cccc(COCc3cccc(BOCCNc4ccc(F)cc4)c3)c2)cc1 [Example 337, bis(3-(4-fluorophenylaminoethoxyboryl)benzyl)ether] |  | 0.98 | 102 |  | 0.98 | 102 |  | 
5 | Cc1cc(B(O)c2ccc(COCc3ccc(B(O)c4ccc(Cl)c(C)c4)cc3)cc2)ccc1Cl [Example 338, bis(4-(4-chloro-3-methyl-phenyl)hydroxyborylbenzyl)ether] |  | 0.83 | 110 |  |  |  | 0.83 | 110
6 | Cc1cc(B(OCCN)c2ccc(COCc3ccc(B(OCCN)c4ccc(Cl)c(C)c4)cc3)cc2)ccc1Cl [Example 339] |  | 0.91 | 115 |  | 0.91 | 115 |  | 
7 | Cc1ccc(B(O)c2ccc(COCc3cccc(B(O)c4ccc(C)c(Cl)c4)c3)cc2)cc1Cl [Example 341, (3-(3-chloro-4-methylphenylhydroxyboryl)benzyl)(4-(3-chloro-4-methylphenylhydroxyboryl)benzyl)ether] |  | 1.04 | 107 |  |  |  |  | 
8 | OB(c1ccc(COCc2cccc(B(O)c3cc(F)c(F)c(F)c3)c2)cc1)c1cc(F)c(F)c(F)c1 [Example 342, (3-(3′,4′,5′-trifluorophenylhydroxyboryl)benzyl)(4-(3′,4′,5′-trifluorophenylhydroxyboryl)benzyl)ether] |  | 1.02 | 114 |  | 1.02 | 114 |  | 
9 | COc1ccc(NCCOBc2cccc(COCc3cccc(BOCCNc4ccc(OC)cc4)c3)c2)cc1 [Example 343, bis(3-(4-methoxyphenylaminoethoxyboryl)benzyl)ether] |  | 1.02 | 55 |  | 1.02 | 55 |  | 
10 | Cc1cc(B(O)c2cccc(COCc3ccccc3B(O)c3ccc(Cl)c(C)c3)c2)ccc1Cl [Example 344, (3-(4-chloro-3-methylphenylhydroxyboryl)benzyl)(2-(4-chloro-3-methylphenylhydroxyboryl)benzyl)ether] |  | 0.93 | 91 |  | 0.93 | 91 |  | 
11 | N#Cc1ccc(B(O)c2cccc(COCc3cccc(B(O)c4ccc(C#N)cc4)c3)c2)cc1 [Example 345, bis(3-(4-cyanophenylhydroxyboryl)benzyl)ether] |  | 0.92 | 95 |  | 0.92 | 95 |  | 
12 | OB(c1cccc(COCc2cccc(B(O)c3cccc4ccccc34)c2)c1)c1cccc2ccccc12 [Example 347, bis(3-(1′-naphthylhydroxyboryl)benzyl)ether] |  | 0.90 | 104 |  |  |  |  | 
13 | COc1ccc(F)cc1B(O)c1ccc(COCc2ccc(B(O)c3cc(F)ccc3OC)cc2)cc1 [Example 349, bis(4-(2-methoxy-5-fluorophenylhydroxyboryl)benzyl)ether] |  | 0.80 | 104 |  | 0.80 | 104 |  | 
14 | Cc1cc(B(OCCN)c2cccc(COCc3ccccc3B(OCCN)c3ccc(Cl)c(C)c3)c2)ccc1Cl [Example 351] |  | 1.00 | 103 |  | 1.00 | 103 |  | 
15 | OB(c1ccc(COCc2ccc(B(O)c3ccc(F)c(F)c3)cc2)cc1)c1ccc(F)c(F)c1 [Example 352, bis(4-(3,4-difluorophenylhydroxyboryl)benzyl)ether] |  | 1.02 | 97 |  | 1.02 | 97 |  | 
16 | NCCOB(c1ccc(COCc2cccc(B(OCCN)c3cc(F)c(F)c(F)c3)c2)cc1)c1cc(F)c(F)c(F)c1 [Example 354, (3-(3′,4′,5′-trifluorophenylaminoethoxyboryl)benzyl)(4-(3′,4′,5′-trifluorophenylaminoethoxyboryl)benzyl)ether] |  | 1.09 | 113 |  | 1.09 | 113 |  | 
17 | NCCOB(c1ccccc1)c1ccc(-c2ccc(B(OCCN)c3ccccc3)s2)s1 [Example 356, 5,5′-(phenylaminoethoxyboryl)-2,2′-dithiophene] |  | 1.06 | 51 |  | 1.06 | 51 |  | 
18 | c1ccc(B(OCCN2CCN(CCOB(c3ccccc3)c3ccccc3)CC2)c2ccccc2)cc1 [Example 356] |  |  |  |  | 0.94 | 126 |  | 
19 | Cc1cc(B(OCCN)c2ccccc2)cc(B(OCCN)c2ccccc2)c1 [Example 357, 3,5-di(phenylaminoethoxyboryl)toluene] |  | 1.03 | 89 |  | 1.03 | 89 |  | 
20 | Cc1cc(B(O)c2ccccc2)ccc1B(O)c1ccccc1 [Example 358, 2,5-di(phenylhydroxyboryl)toluene] |  | 0.91 | 112 |  | 0.91 | 112 |  | 
21 | OB(c1ccccc1)c1ccc2ccccc2c1-c1c(B(O)c2ccccc2)ccc2ccccc12 [Example 359, 2,2′-di(phenylhydroxyboryl)-1,1′-binaphthyl] |  | 0.96 | 139 |  | 0.96 | 139 |  | 
22 | NCCOB(c1ccccc1)c1ccc2ccccc2c1-c1c(B(OCCN)c2ccccc2)ccc2ccccc12 [Example 360, 2,2′-di(phenylaminoethoxyboryl)-1,1′-binaphthyl] |  | 1.05 | 88 |  | 1.05 | 88 |  | 
23 | Cc1ccc(NCCOBc2ccc(COCc3ccc(BOCCNc4ccc(C)cc4)cc3)cc2)cc1 [Example 362, bis(4-(4-methylphenylaminoethoxyboryl)benzyl)ether] |  | 1.08 | 108 |  | 1.08 | 108 |  | 
24 | Cc1ccc(B(O)c2ccc(-c3ccc(B(O)c4ccc(C)cc4)cc3)cc2)cc1 [Example 363, 4,4′-(4-methylphenylhydroxyboryl)diphenyl] |  | 0.92 | 97 |  | 0.92 | 97 |  | 
25 | Cc1ccc(B(OCCN)c2ccc(-c3ccc(B(OCCN)c4ccc(C)cc4)cc3)cc2)cc1 [Example 364, 4,4′-(4-methylphenylaminoethoxyboryl)diphenyl] |  | 0.82 | 44 |  | 0.82 | 44 |  | 
26 | Cc1ccc(B(O)c2ccc(Oc3ccc(B(O)c4ccc(C)cc4)cc3)cc2)cc1 [Example 365, 4,4′-(4-methylphenylhydroxyboryl)diphenylether] |  | 0.91 | 118 |  | 0.91 | 118 |  | 
27 | Cc1ccc(B(O)c2ccc(Oc3ccc(B(O)c4ccc(C)c(Cl)c4)cc3)cc2)cc1Cl [Example 367, 4,4′-bis(3-chloro-4-methyl-phenylhydroxyboryl)diphenylether] |  | 0.73 | 113 |  | 0.73 | 113 |  | 
28 | OB(c1ccccc1)c1ccccc1CCOCc1ccccc1B(O)c1ccccc1 [Example 368, (2-(phenylhydroxyboryl)phenethyl)((2-phenylhydroxyboryl)benzyl)ether] |  | 1.03 | 52 |  | 1.03 | 52 |  | 
29 | Cc1ccc(Cl)cc1B(OCC1CCCCN1)c1cc(Cl)ccc1C (stereo not drawn) [Example 371] |  |  |  |  | 1.17 | 98 |  | 
